Reference: ChEMBL document CHEMBL6109174, “The Prosperity and Adversity of M4 Muscarinic Acetylcholine Receptor Activators in the Treatment of Neuropsychiatric Disorders” (J Med Chem, 2025)

molecular target: T1, Muscarinic acetylcholine receptor M4 (Homo sapiens, UniProt P08173); assay: Agonist activity at human recombinant M4 muscarinic acetylcholine receptor assessed as calcium mobilization by FLIPR analysis; format: functional
T1 sequence (P08173 whole entry): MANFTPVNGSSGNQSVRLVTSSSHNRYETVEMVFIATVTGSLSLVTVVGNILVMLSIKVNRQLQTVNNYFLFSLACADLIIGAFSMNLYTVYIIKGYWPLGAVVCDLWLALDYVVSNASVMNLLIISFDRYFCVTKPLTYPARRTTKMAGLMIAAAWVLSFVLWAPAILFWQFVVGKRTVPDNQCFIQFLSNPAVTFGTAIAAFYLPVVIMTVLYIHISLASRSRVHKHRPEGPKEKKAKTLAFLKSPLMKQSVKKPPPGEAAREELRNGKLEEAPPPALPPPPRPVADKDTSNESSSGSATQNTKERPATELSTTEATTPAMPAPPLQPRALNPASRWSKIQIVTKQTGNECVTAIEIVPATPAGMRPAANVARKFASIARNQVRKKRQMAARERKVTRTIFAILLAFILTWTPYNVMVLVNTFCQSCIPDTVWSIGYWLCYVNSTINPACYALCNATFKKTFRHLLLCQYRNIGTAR

Structure (SMILES) | EC50 [nM]
Cc1cc(C)c2c(N)c(C(=O)NCc3ccco3)sc2n1 | 395
Cc1nc2sc(C(=O)NCc3ccncc3)c(N)c2c(C)c1Cl | 77
Cc1nnc2sc(C(=O)NCc3ccc(-c4ccnc(F)c4)cc3)c(N)c2c1C | 91

Next, values leading:

EC50 [nM] | Structure (SMILES)
1.3 | Cc1cc(C)c2c(N)c(C(=O)NCc3ccccc3)sc2n1
400 | Cc1cc(C)c2c(N)c(C(=O)NCc3ccc(Cl)cc3)sc2n1
403 | Cc1cc(C)c2c(N)c(C(=O)NCc3ccc4c(c3)OCO4)sc2n1

molecular target: T1, Muscarinic acetylcholine receptor M4; assay: Agonist activity at human M4 receptor; format: functional

EC50 [nM] | Structure (SMILES)
39 | COc1nc2sc(C(=O)NC3CC3)c(N)c2c(C)c1Cl
200 | CCNC(=O)c1sc2nc(OC)c(Cl)c(C)c2c1N

molecular target: T2, Muscarinic acetylcholine receptor M2 (Homo sapiens, UniProt P08172); assay: Agonist activity at human M2 receptor; format: functional
T2 sequence (P08172 whole entry): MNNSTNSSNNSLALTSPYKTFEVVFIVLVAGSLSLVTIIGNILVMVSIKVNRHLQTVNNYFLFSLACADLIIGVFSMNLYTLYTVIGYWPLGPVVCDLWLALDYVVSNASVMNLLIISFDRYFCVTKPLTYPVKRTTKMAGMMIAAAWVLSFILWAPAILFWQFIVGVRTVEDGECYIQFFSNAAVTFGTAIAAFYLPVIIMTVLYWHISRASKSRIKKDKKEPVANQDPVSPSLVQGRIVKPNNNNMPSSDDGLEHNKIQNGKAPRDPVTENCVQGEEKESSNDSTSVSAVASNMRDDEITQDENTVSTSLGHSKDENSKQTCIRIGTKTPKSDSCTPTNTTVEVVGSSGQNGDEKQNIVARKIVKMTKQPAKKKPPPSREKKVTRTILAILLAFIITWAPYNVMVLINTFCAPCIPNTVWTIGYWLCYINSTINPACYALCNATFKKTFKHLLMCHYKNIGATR

Structure (SMILES) | EC50 [nM]
COC(=O)N1CCC(N2CCC(n3c(=O)n(C)c4ccccc43)CC2)CC1 | 135
